Legend:
[1] = tested on: 102 cell lines; assay: Oncolines viability of 120 reference anti-cancer agents; type: cell-based, human
Method: Pearson correlations were calculated between SJ3149 ^10log IC50 values and those of the 120 reference agents, to determine the similarity of compound IC50 fingerprints.

[2] = tested on: 102 cell lines; conditions: cited from earlier work
[3] = tested on: 102 cell lines; assay: Oncolines viability of 120 reference anti-cancer agents; type: cell-based, human; remark: listed apart in the source

IC50 ([1]; G-361, Melanoma): 2.53 µM
IC50 ([1]; JAR, Gestational choriocarcinoma): 7.25 µM
IC50 ([1]; KG-1, Adult acute myeloid leukemia): > 31.6 µM
IC50 ([1]; MOLT-4, Adult T acute lymphoblastic leukemia): 2.87 µM
IC50 ([1]; NCI-H460, Large cell lung carcinoma): 4.2 µM
IC50 ([1]; RL, Diffuse large B-cell lymphoma, TP53 Mutant): > 31.6 µM
IC50 ([1]; SNU-C2B, Cecum adenocarcinoma, TP53 Mutant): > 31.6 µM
IC50 ([1]; SR, Anaplastic large cell lymphoma, TP53 Mutant): 2.04 µM
IC50 ([1]; SW948, Colon adenocarcinoma, TP53 Mutant): > 31.6 µM
IC50 ([1]; cell line ACHN, Papillary renal cell carcinoma, TP53 Wild-type): 3.3 µM
IC50 ([1]; cell line AsPC-1, Pancreatic ductal adenocarcinoma, TP53 Mutant): > 31.6 µM
IC50 ([1]; cell line Daoy, Medulloblastoma, TP53 Mutant): > 31.6 µM
IC50 ([1]; cell line TT (Hereditary thyroid gland medullary carcinoma), TP53 Wild-type): 7.4 µM
IC50 ([1]; cell line U-2 OS (Osteosarcoma), TP53 Wild-type): 13.3 µM
IC50 ([3]; FaDu, Hypopharyngeal squamous cell carcinoma): > 31.6 µM
IC50 ([3]; HCT 116, Colon carcinoma): 4.55 µM
IC50 ([3]; HCT-15, Colon adenocarcinoma): > 31.6 µM
IC50 ([3]; HL-60, Adult acute myeloid leukemia): > 31.6 µM
IC50 ([3]; HT-1080, Fibrosarcoma): 2.06 µM
IC50 ([3]; HT, Diffuse large B-cell lymphoma): > 31.6 µM
IC50 ([3]; Hs 578T, Invasive ductal carcinoma): > 31.6 µM
IC50 ([3]; Hs 746T, Gastric adenocarcinoma): > 31.6 µM
IC50 ([3]; Hs 766T, Pancreatic adenocarcinoma): > 31.6 µM
IC50 ([3]; HuTu 80, Duodenal adenocarcinoma): 3.91 µM
IC50 ([3]; J82, Bladder carcinoma): > 31.6 µM
IC50 ([3]; Jurkat E6.1, Childhood T acute lymphoblastic leukemia): > 31.6 µM
IC50 ([3]; K-562, Chronic myelogenous leukemia): > 31.6 µM
IC50 ([3]; KATO III, Signet ring cell gastric adenocarcinoma): 29.3 µM
IC50 ([3]; KLE, Endometrial adenocarcinoma): > 31.6 µM
IC50 ([3]; KU812, Chronic myelogenous leukemia): > 31.6 µM
IC50 ([3]; LNCaP FGC, Prostate carcinoma): 10.9 µM
IC50 ([3]; LS 174T, Colon adenocarcinoma): 3.7 µM
IC50 ([3]; LS411N, Cecum adenocarcinoma): > 31.6 µM
IC50 ([3]; LoVo, Colon adenocarcinoma): 10.2 µM
IC50 ([3]; MCF7, Invasive ductal carcinoma): 11.4 µM
IC50 ([3]; MG-63, Osteosarcoma): > 31.6 µM
IC50 ([3]; MIA PaCa-2, Pancreatic ductal adenocarcinoma): > 31.6 µM
IC50 ([3]; MeWo, Melanoma): > 31.6 µM
IC50 ([3]; NCI-H82, Small cell lung carcinoma): > 31.6 µM
IC50 ([3]; NCI-H661, Large cell lung carcinoma): > 31.6 µM
IC50 ([3]; OVCAR-3, High grade ovarian serous adenocarcinoma, TP53 Mutant): > 31.6 µM
IC50 ([3]; PA-1, Ovarian mixed germ cell tumor, TP53 Wild-type): 2.31 µM
IC50 ([3]; PC-3, Prostate carcinoma, TP53 Mutant): > 31.6 µM
IC50 ([3]; PFSK-1, Primitive neuroectodermal tumor, TP53 Mutant): > 31.6 µM
IC50 ([3]; RKO, Colon carcinoma, TP53 Wild-type): 15.7 µM
IC50 ([3]; RL95-2, Endometrial adenosquamous carcinoma, TP53 Mutant): 24.6 µM
IC50 ([3]; RPMI-7951, Melanoma, TP53 Mutant): > 31.6 µM
IC50 ([3]; RS4-11, Adult B acute lymphoblastic leukemia, TP53 Wild-type): 4.71 µM
IC50 ([3]; RT4, Bladder carcinoma, TP53 Wild-type): 7.03 µM
IC50 ([3]; SHP-77, Small cell lung carcinoma, TP53 Mutant): 27.3 µM
IC50 ([3]; SJCRH30, Alveolar rhabdomyosarcoma, TP53 Mutant): > 31.6 µM
IC50 ([3]; SK-N-AS, Neuroblastoma, TP53 Wild-type): > 31.6 µM
IC50 ([3]; SK-N-FI, Neuroblastoma, TP53 Mutant): > 31.6 µM
IC50 ([3]; SNU-5, Gastric carcinoma, TP53 Mutant): > 31.6 µM
IC50 ([3]; SU-DHL-1, Anaplastic large cell lymphoma, TP53 Mutant): 30.7 µM
IC50 ([3]; SU-DHL-6, Diffuse large B-cell lymphoma, TP53 Mutant): 23.4 µM
IC50 ([3]; SUP-T1, Childhood T lymphoblastic lymphoma, TP53 Mutant): > 31.6 µM
IC50 ([3]; SW48, Colon adenocarcinoma, TP53 Wild-type): 7.63 µM
IC50 ([3]; SW480, Colon adenocarcinoma, TP53 Mutant): > 31.6 µM
IC50 ([3]; SW620, Colon adenocarcinoma, TP53 Mutant): 13.6 µM
IC50 ([3]; SW626, Colon adenocarcinoma, TP53 Mutant): > 31.6 µM
IC50 ([3]; SW837, Rectal adenocarcinoma, TP53 Mutant): > 31.6 µM
IC50 ([3]; SW872, Liposarcoma, TP53 Mutant): > 31.6 µM
IC50 ([3]; SW900, Squamous cell lung carcinoma, TP53 Mutant): > 31.6 µM
IC50 ([3]; SW982, Biphasic synovial sarcoma, TP53 Wild-type): 3.11 µM
IC50 ([3]; T24, Bladder carcinoma, TP53 Mutant): > 31.6 µM
IC50 ([3]; T98G, Glioblastoma, TP53 Mutant): > 31.6 µM
IC50 ([3]; cell line 769-P, Renal cell carcinoma, TP53 Wild-type): 5.52 µM
IC50 ([3]; cell line 786-O, Renal cell carcinoma, TP53 Mutant): 13.4 µM
IC50 ([3]; cell line 5637, Bladder carcinoma, TP53 Mutant): > 31.6 µM
IC50 ([3]; cell line A375, Amelanotic melanoma, TP53 Wild-type): 6.9 µM
IC50 ([3]; cell line A388, Squamous cell carcinoma, TP53 Mutant): > 31.6 µM
IC50 ([3]; cell line A-172, Glioblastoma, TP53 Wild-type): 11.5 µM
IC50 ([3]; cell line A-427, Lung adenocarcinoma, TP53 Wild-type): 5.36 µM
IC50 ([3]; cell line A-498, Renal cell carcinoma, TP53 Wild-type): 5.59 µM
IC50 ([3]; cell line A-549, Lung adenocarcinoma, TP53 Wild-type): 6.56 µM
IC50 ([3]; cell line A-704, Renal cell carcinoma, TP53 Mutant): > 31.6 µM
IC50 ([3]; cell line AN3 CA, Endometrial adenocarcinoma, TP53 Mutant): > 31.6 µM
IC50 ([3]; cell line AU-565, Breast adenocarcinoma, TP53 Mutant): > 31.6 µM
IC50 ([3]; cell line BT-20, Invasive ductal carcinoma, TP53 Mutant): > 31.6 µM
IC50 ([3]; cell line BT-549, Invasive ductal carcinoma, TP53 Mutant): > 31.6 µM
IC50 ([3]; cell line BxPC-3, Pancreatic ductal adenocarcinoma, TP53 Mutant): > 31.6 µM
IC50 ([3]; cell line C-33 A, Cervical squamous cell carcinoma, TP53 Mutant): > 31.6 µM
IC50 ([3]; cell line CAL 27, Tongue squamous cell carcinoma, TP53 Mutant): > 31.6 µM
IC50 ([3]; cell line CCF-STTG1, Astrocytoma, TP53 Wild-type): 7.17 µM
IC50 ([3]; cell line CCRF-CEM, Childhood T acute lymphoblastic leukemia, TP53 Mutant): > 31.6 µM
IC50 ([3]; cell line COLO 205, Colon adenocarcinoma, TP53 Mutant): > 31.6 µM
IC50 ([3]; cell line COLO 829, Cutaneous melanoma, TP53 Wild-type): 15.6 µM
IC50 ([3]; cell line DB, Diffuse large B-cell lymphoma, TP53 Mutant): 28.6 µM
IC50 ([3]; cell line DLD-1, Colon adenocarcinoma, TP53 Mutant): > 31.6 µM
IC50 ([3]; cell line DU 145, Prostate carcinoma, TP53 Mutant): > 31.6 µM
IC50 ([3]; cell line DU4475, Breast carcinoma, TP53 Wild-type): 4.62 µM
IC50 ([3]; cell line DoTc2 4510, Cervical carcinoma, TP53 Wild-type): > 31.6 µM
IC50 ([3]; cell line ES-2, Ovarian clear cell adenocarcinoma, TP53 Mutant): > 31.6 µM
IC50 ([3]; cell line TCCSUP (Bladder carcinoma), TP53 Mutant): > 31.6 µM
IC50 ([3]; cell line THP-1 (Childhood acute monocytic leukemia), TP53 Mutant): > 31.6 µM
IC50 ([3]; cell line U-87 MG (Glioblastoma), TP53 Wild-type): 4.37 µM
IC50 ([3]; cell line U-118 MG (Astrocytoma), TP53 Mutant): > 31.6 µM
IC50 ([3]; cell line VA-ES-BJ (Epithelioid sarcoma), TP53 Wild-type): 1.73 µM
SMILES: COc1ccc(C2=N[C@@H](c3ccc(Cl)cc3)[C@@H](c3ccc(Cl)cc3)N2C(=O)N2CCNC(=O)C2)c(OC(C)C)c1 [Nutlin-3a]
Potency in responsive cell lines [2]: micromolar potency
IC50 ([3]; NCCIT, Testicular embryonal carcinoma): > 31.6 µM
IC50 ([3]; RD, Embryonal rhabdomyosarcoma, TP53 Mutant): > 31.6 µM
IC50 ([3]; cell line A-204, Embryonal rhabdomyosarcoma, TP53 Wild-type): 3.06 µM
